# Reference: patent US20130172318A1, “ANTI-INFLAMMATORY AGENTS” (priority 2010, published 2013)
# Tested on: not given
# Assay: not given
# Details: not given
row,Compound,melting point [°C]
1,"CCCCCCCCc1ccc(C(=O)N[C@H]2CCCNC2=O)cc1 [Example 26, (S)-3-(4′-Octylbenzoylamino)-tetrahydropyridin-2-one]",122 to 123
2,"O=C(N[C@H]1CCCNC1=O)c1cc(F)ccc1F [Example 9, (S)-2,5-difluoro-N-(2-oxopiperidin-3-yl)benzamide]",140 to 142
3,"O=C(N[C@H]1CCCNC1=O)c1ccccc1C(F)(F)F [Example 6, (S)—N-(2-Oxopiperidin-3-yl)-2-(trifluoromethyl)benzamide]",155 to 156
4,"CC(C)(C)c1ccc(C(=O)N[C@H]2CCCCNC2=O)cc1 [Example 19, (S)-3-(4′-tert-Butylbenzoylamino)-azepan-2-one]",204 to 205
5,"CCCCc1ccc(C(=O)N[C@H]2CCCCNC2=O)cc1 [Example 16, (S)-3-(4′-Butylbenzoylamino)-azepan-2-one]",183 to 184
6,"CC(C)(C)c1ccc(C(=O)N[C@@H]2CCCNC2=O)cc1 [Example 21, (R)-3-(4′-tert-Butylbenzoylamino)-tetrahydropyridin-2-one]",193 to 194
7,"CCCCCCCCc1ccc(C(=O)N[C@@H]2CCCNC2=O)cc1 [Example 27, (R)-3-(4′-Octylbenzoylamino)-tetrahydropyridin-2-one]",122 to 123
8,"CCCCCCc1ccc(C(=O)N[C@@H]2CCCNC2=O)cc1 [Example 24, (R)-3-(4′-Hexylbenzoylamino)-tetrahydropyridin-2-one]",117 to 118
9,"O=C(N[C@H]1CCCNC1=O)c1ccccc1F [Example 2, (S)-2-Fluoro-N-(2-oxopiperidin-3-yl)benzamide]",166 to 168
10,"O=C(N[C@H]1CCCNC1=O)c1ccc(C(F)(F)F)cc1 [Example 4, (S)—N-(2-Oxopiperidin-3-yl)-4-(trifluoromethyl)benzamide]",212 to 214
11,"CCc1ccc(C(=O)N[C@H]2CCCCNC2=O)cc1 [Example 14, (S)-3-(4′-Ethylbenzoylamino)-azepan-2-one]",218 to 219
12,"O=C(N[C@H]1CCCNC1=O)c1cccc(F)c1 [Example 1, (S)-3-Fluoro-N-(2-oxopiperidin-3-yl)benzamide]",164 to 166
13,"CC(C)(C)c1ccc(C(=O)N[C@H]2CCCNC2=O)cc1 [Example 20, (S)-3-(4′-tert-Butylbenzoylamino)-tetrahydropyridin-2-one]",195 to 196
14,"O=C(N[C@H]1CCCNC1=O)c1ccc(F)cc1F [Example 8, (S)-2,4-difluoro-N-(2-oxopiperidin-3-yl)benzamide]",140 to 141
15,"O=C(N[C@H]1CCCNC1=O)c1cccc(C(F)(F)F)c1 [Example 5, (S)—N-(2-Oxopiperidin-3-yl)-3-(trifluoromethyl)benzamide]",148 to 150
16,"O=C(N[C@H]1CCCNC1=O)c1c(F)cccc1F [Example 10, (S)-2,6-difluoro-N-(2-oxopiperidin-3-yl)benzamide]",190 to 194
17,"O=C(N[C@H]1CCCNC1=O)c1cc(F)cc(F)c1 [Example 12, (S)-3,5-difluoro-N-(2-oxopiperidin-3-yl)benzamide]",198 to 199
18,"O=C(N[C@H]1CCCNC1=O)c1ccc(F)c(F)c1 [Example 11, (S)-3,4-difluoro-N-(2-oxopiperidin-3-yl)benzamide]",202 to 204
19,"O=C(N[C@H]1CCCNC1=O)c1cccc(F)c1F [Example 7, (S)-2,3-difluoro-N-(2-oxopiperidin-3-yl)benzamide]",160 to 162
20,"CCc1ccc(C(=O)N[C@H]2CCCNC2=O)cc1 [Example 15, (S)-3-(4′-Ethylbenzoylamino)-tetrahydropyridin-2-one]",112 to 113
21,"CCCCCCCCc1ccc(C(=O)N[C@H]2CCCCNC2=O)cc1 [Example 25, (S)-3-(4′-Octylbenzoylamino)-azepan-2-one]",159 to 160
22,"CCCCc1ccc(C(=O)N[C@H]2CCCNC2=O)cc1 [Example 17, (S)-3-(4′-Butylbenzoylamino)-tetrahydropyridin-2-one]",117 to 118
23,"CCCCCCc1ccc(C(=O)N[C@H]2CCCCNC2=O)cc1 [Example 22, (S)-3-(4′-Hexylbenzoylamino)-azepan-2-one]",167 to 168
24,"CCCCc1ccc(C(=O)N[C@@H]2CCCNC2=O)cc1 [Example 18, (R)-3-(4′-Butylbenzoylamino)-tetrahydropyridin-2-one]",116 to 117
25,"CCCCCCc1ccc(C(=O)N[C@H]2CCCNC2=O)cc1 [Example 23, (S)-3-(4′-Hexylbenzoylamino)-tetrahydropyridin-2-one]",118 to 119

# Tested on: not given
# Assay: not given
# Details: 37° C.; cited from earlier work
row,Compound,time completely stable in human serum
1,(S)-3-(undec-10-enoyl)-tetrahydropyridin-2-one,at least 7 days

# Tested on: MCP-1 induced migration of THP-1 cells
# Assay: Inhibition of MCP-1 induced leukocyte migration (transwell, THP-1 cells)
# Format: cell-based
# Details: Homo sapiens, MCP-1 25 ng/ml, 2 hours 37° C., read-out: ED50 (concentration required to reduce the MCP-1-induced migration by 50%)
# Procedure: In principle, this assay consists of two chambers separated by a porous membrane. The chemoattractant is placed in the lower compartment and the cells are placed in the upper compartment. After incubation for a period at 37° C. the cells move towards the chemoattractant, and the number of cells in the lower compartment is proportional to the chemoattractant activity (relative to a series of controls).
# The THP-1 cell line (European Cell culture Collection) were used as the leukocyte cell population.
# The following procedure is used for testing the invention compounds for MCP-1 induced leukocyte migration:
# First, the cell suspension to be placed in the upper compartment is prepared. The THP-1 cells are pelleted by centrifugation (770×g; 4 mins) and washed with Geys Balanced Salt Solution with 1 mg/ml BSA (GBSS+BSA). This wash is then repeated, and the cells repelleted before being resuspended in a small volume of GBSS+BSA for counting, for example using a standard haemocytometer.
# The volume of GBSS+BSA is then adjusted depending on the number of cells present so that the cells are at final density of 4.45×10^6 cells per ml of GBSS+BSA. This ensures that there are […] THP-1 cells in each 25 μl of the solution that will be placed in the upper chamber of the plate.
# To test a single compound for its ability to inhibit MCP-1 induced migration, it is necessary to prepare two lots of cells. The suspension of THP-1 cells at 4.45×10^6 cells/ml is divided into two pots. To one pot the inhibitor under test is added at an appropriate final concentration, in an appropriate vehicle (for example at 1 μM in not more than 1% DMSO). To the second pot an equal volume of GBSS+BSA plus vehicle as appropriate (e.g. not more than 1% DMSO) is added to act as a control.
# Next, the chemoattractant solution to be placed in the lower compartment is prepared. MCP-1 is diluted in GBSS+BSA to give a final concentration of 25 ng/ml. This is divided into two pots, as for the cell suspension. To one pot, the test compound is added to the same final concentration as was added to the cell suspension, while to the other pot an equal volume of GBSS+BSA plus vehicle as appropriate (e.g. not more than 1% DMSO) is added.
# Note that the volume of liquid that needs to be added to make the addition of the text compound needs to be taken into account, when establishing the final concentration of MCP-1 in the solution for the lower compartment and the final concentration of cells in the upper compartment.
# Once the chemoattractant solutions for the lower wells and cell solutions for the upper chambers have been prepared, the migration chamber should be assembled. Place 29 μl of the appropriate chemoattractant solution into the lower well of the chamber. Assays should be performed with at least triplicate determinations of each condition. Once all the lower chambers have been filled, apply the prous membrane to the chamber in accordance with the manufacturer's instructions. Finally, apply 25 μl of the appropriate cell solution to each upper chamber. A plastic lid is placed over the entire apparatus to prevent evaporation.
# The assembled chamber is incubated at 37° C., 5% CO2, for 2 hours. A suspension of cells in GBSS+BSA is also incubated under identical conditions in a tube: these cells will be used to construct a standard curve for determining the number of cells that have migrated to the lower chamber under each condition.
# At the end of the incubation, the liquid cell suspension is gently removed from the upper chamber, and 20 μl of ice-cold 20 mM EDTA in PBS is added to the upper chamber, and the apparatus is incubated at 4° C. for 15 mins. This procedure causes any cells adhering to the underside of the membrane to fall into the lower chamber.
# After this incubation the filter is carefully flushed with GBSS+BSA to wash off the EDTA, and then the filter is removed. […]
row,Compound,EC50 [nM]
1,"O=C(NC1CCCCNC1=O)c1ccc(Cl)cc1 (stereo not shown) [Reference Example 6, 3-(4′-Chlorobenzoylamino)azepan-2-one]",≤ 100
2,"Cc1cc(C)cc(C(=O)NC2CCCCNC2=O)c1 (stereo not shown) [Reference Example 14, 3-(3′,5′-Dimethylbenzoylamino)azepan-2-one]",≤ 100
3,"O=C(NC1CCCNC1=O)c1ccccc1 (stereo not shown) [Reference Example 1, 3-(Benzoylamino)tetrahydropyridin-2-one]",≤ 100
4,"O=C(NC1CCCNC1=O)c1ccc(F)cc1 (stereo not shown) [Reference Example 9, 3-(4′-Fluorobenzoylamino)tetrahydropyridin-2-one]",≤ 100
5,"COc1ccc(C(=O)NC2CCCNC2=O)cc1 (stereo not shown) [Reference Example 7, 3-(4′-Methoxybenzoylamino)tetrahydropyridin-2-one]",≤ 100
6,"O=C(NC1CCCNC1=O)c1ccc(Cl)cc1 (stereo not shown) [Reference Example 5, 3-(4′-Chlorobenzoylamino)tetrahydropyridin-2-one]",≤ 100
7,"Cc1ccc(C(=O)NC2CCCNC2=O)cc1 (stereo not shown) [Reference Example 3, 3-(4′-Methylbenzoylamino)tetrahydropyridin-2-one]",≤ 100
8,"COc1ccc(C(=O)NC2CCCCNC2=O)cc1 (stereo not shown) [Reference Example 8, 3-(4′-Methoxybenzoylamino)azepan-2-one]",≤ 100
9,"O=C(NC1CCCCNC1=O)c1ccc(F)cc1 (stereo not shown) [Reference Example 10, 3-(4′-Fluorobenzoylamino)azepan-2-one]",≤ 100
10,"Cc1cc(C)cc(C(=O)NC2CCCNC2=O)c1 (stereo not shown) [Reference Example 13, 3-(3′,5′-Dimethylbenzoylamino)tetrahydropyridin-2-one]",≤ 100
11,"O=C(NC1CCCCNC1=O)c1ccccc1 (stereo not shown) [Reference Example 2, 3-(Benzoylamino)azepan-2-one]",≤ 100
12,"Cc1ccc(C(=O)NC2CCCCNC2=O)cc1 (stereo not shown) [Reference Example 4, 3-(4′-Methylbenzoylamino)azepan-2-one]",≤ 100

# Tested on: chemokine-induced migration
# Assay: not given
# Details: cited from earlier work
row,Compound,BSCI potency/activity in words (comparative)
1,"CCCCCCCCCC=CC(=O)NC1CCCCNC1=O (stereo not shown) [dodec-2′,3′-enoyl-3-aminocaprolactam]",markedly lower potency
2,(S)-3-(undec-10-enoyl)-tetrahydropyridin-2-one,considerably reduced potency
3,CCCCCCCCCC(C)(C)CC(=O)NC1CCCCNC1=O (stereo not shown) [3′3′-dimethyldodecanoyl-3-aminocaprolactam],no more potent

# Tested on: not given
# Assay: not given
# Details: after intravenous injection; cited from earlier work
row,Compound,half-life period of clearance from blood plasma
1,c(DCys-DGln-DIle-DTrp-DLys-DGln-DLys-DPro-DAsp-DLeu-DCys)-NH2 [NR58-3.14.3],less than 30 minutes

# Same assay, conditions: in vivo, po; cited from earlier work
row,Compound,oral bioavailability
1,c(DCys-DGln-DIle-DTrp-DLys-DGln-DLys-DPro-DAsp-DLeu-DCys)-NH2 [NR58-3.14.3],not orally bioavailable
